Test results as given in patent publication US10959966B2, “Compositions and methods for modulating HEXM1 expression” (CASE WESTERN RESERVE UNIVERSITY, priority 2014, dated 2021).

Columns and labels:
Assay type in all cases: cell-based
[1] = system: HEXIM1 expression in LNCaP prostate cancer cells; experiment: HEXIM1 expression by western blot in LNCaP cells treated with HMBA analogs
Protocol: (§1) FIGS. 2(A-B) illustrate Western blots and a graph showing the effect of HMBA analogs on HEXIM1 expression. LNCaP cells were treated with vehicle, HMBA (5 mM) and its analogs at 500 μM for 24 h. Level of HEXIM1 (upper panel) and β-actin (lower panel) was analyzed by Western blot of cell extracts with HEXIM1 antibody and β-actin antibody respectively. The bands of HEXIM1 were quantified using ImageJ (NIH) and normalized to β-actin. The results are the representative of three independent experiments.
as §1, with “3(A-B)” for “2(A-B)”, “lower concentration” for “the effect”, “identified” for “its”, “100” for “500”
FIGS. 4(A-B) illustrate Western blots and a graph showing dose-dependent study of compound 4a1 and HMBA on HEXIM1 expression. Level of HEXIM1 (upper panel) and β-actin (lower panel) was analyzed by Western blot of cell extracts with HEXIM1 antibody and β-actin antibody respectively.
HMBA analogs described herein can be synthesized based on the HMBA scaffold and then selected for their ability to induce HEXIM1 expression in an in vitro cell assay. For example, the synthesized HMBA analogs can be administered to cells, such as LNCaP prostate cancer cells, and the level of HEXIM1 in such cells can be measured using western blot analyses. The level of HEXIM1 expression of cells that are treated with a potential HMBA analog can be compared to control cells treated without the HMBA analog or with HMBA. Control cells (untreated or treated with HMBA) can be assigned a relative HEXIM1 expression value. Induction or promotion of HEXIM1 expression is achieved when the HEXIM1 expression relative to the control is increased at least about 1%, 5%, 10%, 15%, 20%, 30%, 50%, 75%, 100%, 200%, or more.
The synthesis of the symmetrical and unsymmetrical derivatives is described in Scheme 1 and 2, respectively. For the symmetrical analogs, moieties A and C were kept identical. Besides the acetyl group of HMBA, methanesulfonyl group, propionyl group or butyryl group were introduced. In addition, a bulky benzoyl group was introduced. The active proton in the amide moiety was replaced with methyl group to generate a series of analogs with lower solubility. For the moiety B, various linkers such as 1,3-propylene, […] 1,4-cyclohexylene, 1,4-phenylene-bis(methylene), 1,4-cyclohexylene-bis(methylene) were tested for optimization. For the unsymmetrical analogs, the A and B moieties were kept the same as HMBA while the C moiety was modified with aryl or alkyl amide. A total of 32 compounds were synthesized, and these compounds were examined for their potency to induce HEXIM1 in LNCaP prostate cancer cells. HMBA (5 mM) was used as a positive control.
Therefore, these three compounds were screened at lower concentrations.

[2] = system: p21 expression in prostate cancer LNCaP cells; experiment: p21 expression by western blot, LNCaP cells; conditions: 5 mM HMBA or 50 μM 4a1, 18 hours
Protocol: FIGS. 7(A-B) illustrate Western blots showing (A) MCF7 (control siRNA or HEXIM1 siRNA) and (B) LNCaP (control shRNA or HEXIM1 shRNA) cells treated with vehicle (DMSO), 5 mM HMBA, or 50 μM 4a1 for 18 hours.
Cell lysates were analyzed by western blot as previously described. Anti-HEXIM1 was generated in the Montano laboratory. Primary antibodies against p21 (C-19; cat# sc-397), cyclin D1 (HD11; cat# sc-246) and myc (9E10; cat# sc-40) were obtained from Santa Cruz Biotechnology. Anti-GAPDH was obtained from Millipore. Anti-HIF-1α was obtained from Oxy-cell, Bioresearch).
HMBA was investigated in a Phase II clinical trial due to its potent anti-cancer and cell differentiation activities. Moreover, the roles of HMBA, and potentially 4a1, as differentiating factors are advantageous for their therapeutic use when compared to cytotoxic agents. […] We also examined the ability of 4a1 to induce differentiation and the relative role of HEXIM1.

[3] = system: HEXIM1 expression in MCF7/TOTR cells; experiment: HEXIM1 expression in tamoxifen resistant MCF7/TOTR cells; conditions: 5 mM HMBA or 50 μM 4a1
Protocol: FIGS. 9(A-B) illustrate a Western blot and plots showing HEXIM1 expression in MCF7 and MCF7(TOTR) cells in the presence of vehicle (DMSO), 5 mM HMBA or 50 μM 4a1.
MCF7, MDA-MB-231, and LNCaP cells were obtained from the American Tissue Culture Collection, and were maintained as previously described. Construction of expression vectors for control miRNA or HEXIM1 miRNAs were described previously. MCF7 or LNCaP cells were transfected with expression vectors containing either the HEXIM1 miRNA insert or a control miRNA insert as previously described. Following blasticidin selection, cells expressing the highest level of GFP were flow-sorted and expanded. MDA-MB-231 cells were transfected with control or expression vector for Flag-tagged HEXIM1 as previously described. […]
Cell lysates were analyzed by western blot as previously described. […]
We have reported that HEXIM1 is required for the ability of antiestrogens to inhibit the activity of the Estrogen Receptor, that loss of HEXIM1 results in agonistic activity of tamoxifen, and that recurrence after tamoxifen therapy can be correlated with loss of HEXIM1 expression in human breast tissue samples. Thus we determined if HMBA and 4a1 can enhance sensitivity to tamoxifen of a tamoxifen resistant breast cancer line (MCF7/TOTR). […]

[4] = system: recruitment of CDK9 to HEXIM1 gene in LNCaP cells; experiment: ChIP assay, CDK9 recruitment to HEXIM1 gene, LNCaP cells; conditions: 5 mM HMBA or 50 μM 4a1, 90 minutes
Protocol: FIGS. 6(A-B) illustrate graphs showing HEXIM1 graphs showing HMBA and 4a1 induced recruitment of CDK9 to HEXIM1 promoter in MCF7 and LNCaP cells treated with 5 mM HMBA or 50 μM 4a1 for 90 minutes.
ChIP assays were carried out as previously described. Anti-CDK9 antibody (D-7; cat# sc-13130) was obtained from Santa Cruz Biotechnology.
The induction of HEXIM1 by HMBA appears to involve the release of free P-TEFb from 7SK snRNP, and recruitment of P-TEFb to HEXIM1 gene. P-TEFb is a heterodimer between the cyclin-dependent kinase 9 (Cdk9) and its regulatory subunit Cyclin T1 (CycT1). We thus determined the regulation of the recruitment of CDK9 to the HEXIM1 coding sequence by HMBA and 4a1.

Compound: COc1ccc(CC(=O)NCCCCCCNC(C)=O)cc1 [Compound 4a1]
- HEXIM1 expression compared to the vehicle treatment (cutoff 2.5 fold) ([1]; LNCaP cells, analogs at 500 μM, 24 h, western blot normalized to β-actin): did not reach the cutoff
- Dose-dependent study on HEXIM1 expression ([1]; western blot, FIG. 4): dose-dependently induced HEXIM1 expression
- p21 expression [2]: induction of p21 expression
- HEXIM1 expression [3]: induced HEXIM1 expression
- Recruitment of CDK9 to HEXIM1 gene [4]: induce recruitment of CDK9
